Measurements published in patent US9624211B2, “Anti-cancer compounds” (Board of Regents, The University of Texas System, priority 2013, dated 2017).

target: T1, FBW7 (Homo sapiens, UniProt Q969H0); test: In vivo ubiquitination assay, FBW7 substrates; type: cell-based; conditions: in the presence of proteasome inhibitor
T1 construct: expressed in transfected cells; host or cells: 293T
Procedure: In vivo and in vitro ubiquitination assays were performed as described with modification (Lin et al., 2009; Yang et al., 2009). For in vitro ubiquitination assay, recombinant GST-Akt proteins were expressed, purified and eluted from the bacterial lysates of BL21 competent cells. Flag-Skp2 SCF complex were expressed in 293T cells, immunoprecipitated by anti-Flag antibody, and eluted from Protein A/G beads using Flag peptides according to manufacturers' standard procedures. Purified GST-Akt and Flag-SCF proteins were incubated for 3 h at 37° C. in the absence and presence of Skp2 inhibitor. After incubation, protein mixtures were diluted in E1A Buffer and the supernatant fluid was precleared with Protein A/G beads for 1 h, and immunoprecipitated overnight with anti-Flag antibody, after which Protein A/G beads were added for an additional 1 h. Beads were washed 4 times with E1A Buffer. Proteins were eluted in SDS-sample buffer and subjected to immunoblotting analysis. For in vivo ubiquitination assay, 293T cells were transfected with the indicated plasmids and cultured in the absence or presence of Skp2 inhibitor for 48 h. 6 h before harvest, cells were cultured in the presence of MG132. After cell harvest, cells were lysed by the denatured buffer (6M guanidine-HCl, 0.1M Na2HPO4/NaH2PO4, 10 mM imidazole). […]

T1 sequence (Q969H0 whole entry, species assumed): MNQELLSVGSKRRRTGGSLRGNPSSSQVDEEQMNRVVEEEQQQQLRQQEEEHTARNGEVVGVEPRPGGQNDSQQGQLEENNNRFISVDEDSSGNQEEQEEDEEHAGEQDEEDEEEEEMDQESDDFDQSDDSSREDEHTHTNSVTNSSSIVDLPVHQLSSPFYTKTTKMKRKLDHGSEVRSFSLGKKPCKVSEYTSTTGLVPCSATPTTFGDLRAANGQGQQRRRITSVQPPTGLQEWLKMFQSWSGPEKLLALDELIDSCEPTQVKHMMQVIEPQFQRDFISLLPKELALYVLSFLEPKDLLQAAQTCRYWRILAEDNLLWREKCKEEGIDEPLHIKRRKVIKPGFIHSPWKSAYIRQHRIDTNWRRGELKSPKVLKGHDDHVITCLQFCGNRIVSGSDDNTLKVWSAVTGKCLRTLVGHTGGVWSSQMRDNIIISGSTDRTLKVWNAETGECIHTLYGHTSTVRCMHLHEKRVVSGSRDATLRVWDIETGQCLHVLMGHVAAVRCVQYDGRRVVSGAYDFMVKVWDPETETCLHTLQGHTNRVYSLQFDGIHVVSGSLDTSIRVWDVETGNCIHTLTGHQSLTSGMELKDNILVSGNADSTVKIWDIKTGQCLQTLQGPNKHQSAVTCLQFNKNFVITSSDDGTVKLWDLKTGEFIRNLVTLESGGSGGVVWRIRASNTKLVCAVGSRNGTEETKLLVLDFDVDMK

| FBW7-mediated ubiquitination (c-Jun, MCL-1) | SMILES |
| --- | --- |
| profoundly attenuated | NS(=O)(=O)OC[C@@H]1C[C@@H](n2ccc3c(N[C@H]4CCc5ccccc54)ncnc32)C[C@@H]1O [MLN4924, reference compound] |

target: T2, Skp1/Skp2 binding interaction (Homo sapiens, UniProt Q13309); test: In vitro Skp2-Skp1 binding assay (GST pull-down); conditions: amount of intact Skp1/Skp2 remaining after treatment, quantified on western blot/images
T2 construct: made in house; host or cells: GST-Skp1: E. coli BL21; Skp2: in vitro translation
Procedure: For in vitro GST-Skp1 and Skp2 interaction, GST-Skp1 proteins purified from the bacterial lysates of BL21 competent cells transformed with pGEX-4X1-Skp1 using the Glutathione-Agarose beads according to the manufacturer's standard procedures. The GST-Skp1 proteins bound to glutathione Sepharose beads (Amersham Biosciences) were then incubated with the in vitro translated [35^S]-Skp2 for 2 hours at 4° C. in the interaction buffer with or without compound #25 (20 mM HEPES, PH 7.9, 150 mM KCl. 5 mM EDTA, 0.5 mM DTT, 0.1% (v/v) Nonidet p-40, 0.1% (w/v) BSA, 1 mM PMSF, and 10% Glycerol), washed by the NETN buffer (20 mM Tris, pH 8.0, 100 mM NaCl, 6 mM MgCl2, 1 mM EDTA, 0.5% Nonidet P-40, 1 mM DTT, 8% glycerol, 1 mM PMSF) 4 times, and subjected to 8% SDS-PAGE, followed by autoradiography.
Below are the original lead compound and 11 similar compounds that were tested for their ability to block the Skp1/Skp2 binding interaction in an in vitro assay. The quantification was made on western blot/images, and the percentages represent the amount of intact Skp1/Skp2 remaining after treatment. In vitro binding assays were performed. For in vitro GST-Skp1 and Skp2 interaction, GST-Skp1 proteins purified from the bacterial lysates of BL21 competent cells transformed with pGEX-4X1-Skp1 using the Glutathione-Agarose beads were performed according to the manufacturer's standard procedures. The GST-Skp1 proteins bound to glutathione Sepharose beads (Amersham Biosciences) were then incubated with the in vitro translated [35^S]-Skp2 for 2 hours at 4° C. in the interaction buffer with or without lead compound and 11 similar compounds (20 mM HEPES, PH 7.9, 150 mM KCl. 5 mM EDTA, 0.5 mM DTT, 0.1% (v/v) Nonidet p-40, 0.1% (w/v) BSA, 1 mM PMSF, and 10% Glycerol), washed by the NETN buffer (20 mM Tris, pH 8.0, 100 mM NaCl, 6 mM MgCl2, 1 mM EDTA, 0.5% Nonidet P-40, 1 mM DTT, 8% glycerol, 1 mM PMSF) 4 times, and subjected to 8% SDS-PAGE, followed by autoradiography. The data presented in Table 1 below was obtained using the Skp1/Skp2 binding affinity assay. The quantification percentage results listed below are based on the western blot results.

T2 sequence (Q13309 whole entry): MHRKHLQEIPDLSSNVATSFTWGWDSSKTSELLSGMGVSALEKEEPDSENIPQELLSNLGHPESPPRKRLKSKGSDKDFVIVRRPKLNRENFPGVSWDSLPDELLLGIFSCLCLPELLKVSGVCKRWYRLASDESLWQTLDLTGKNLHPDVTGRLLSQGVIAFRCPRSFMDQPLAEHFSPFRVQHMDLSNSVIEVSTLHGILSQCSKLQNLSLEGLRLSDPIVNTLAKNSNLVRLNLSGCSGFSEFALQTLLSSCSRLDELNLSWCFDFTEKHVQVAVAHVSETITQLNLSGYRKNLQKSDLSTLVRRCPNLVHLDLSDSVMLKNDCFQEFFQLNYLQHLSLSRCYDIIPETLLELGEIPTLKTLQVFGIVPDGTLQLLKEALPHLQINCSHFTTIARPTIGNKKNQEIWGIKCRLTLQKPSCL

| SMILES | Normalized w/ vehicle treatment |
| --- | --- |
| Cn1c(-c2cc3ccc(O)c(CN4CCCC4)c3oc2=O)nc2ccccc21 [compound 343] | 35% |
| Cn1c(-c2cc3ccc(O)c(CN4CCCCCC4)c3oc2=O)nc2ccccc21 [compound 580] | 8% |
| Nc1oc2cc(O)ccc2c(=O)c1-c1nc2ccccc2s1 [compound 649] | 8% |
| CCc1cc2c(=O)c(-c3nc4ccccc4s3)coc2c(CN(C)C)c1O [compound 653] | 8% |
| O=c1c(-c2nc3ccccc3s2)coc2cc(O)ccc12 [compound 684] | 75% |
| COc1ccccc1C(=O)Oc1ccc2c(=O)c(-c3nc4ccccc4s3)coc2c1 [compound 837] | 8% |

Second part, the compound after the results:

| Normalized w/ vehicle treatment | SMILES |
| --- | --- |
| 10% | CCc1cc2c(=O)c(-c3nc4ccccc4s3)coc2c(CN2CCOCC2)c1O [compound 354] |
| 100% (no effect) | CCc1cc2c(=O)c(-c3nc4ccccc4s3)coc2cc1O [compound 378] |
| 40% | Cn1c(-c2cc3ccc(O)c(CN4CCCCC4)c3oc2=O)nc2ccccc21 [compound 435] |
| 80% | O=c1oc2c(CN(CCO)CCO)c(O)ccc2cc1-c1nc2ccccc2s1 [compound 719] |
| 10% | CN(C)Cc1c(O)ccc2cc(-c3nc4ccccc4o3)c(=O)oc12 [compound 820] |

tested on: p27 and p21 protein expression; test: Immunoblotting of SCF substrates in prostate cancer cells; type: cell-based; conditions: LNCaP prostate cancer cells
From the text: Cells were lysed with RIPA buffer in the presence of protease inhibitor cocktail (Roche). The following antibodies were used for immunoblotting analysis: anti-Skp2 (Invitrogen), anti-Xpress (Invitrogen), anti-p27 (BD transduction laboratories), anti-p21 (Santa Cruz), anti-β-actin (Sigma), anti-α-tubulin (Sigma), anti-phospho-Akt (Thr308) (Cell Signaling), anti-phospho-Akt (Ser473) (Cell Signaling), and anti-HA (Convance). For immunohistochemistry, tissues were fixed in 10% formalin and embedded in paraffin in accordance with standard procedures. Sections were stained with anti-Skp2 (Invitrogen), anti-p27 (Epitomics), anti-phosphoAkt (SerS473) (Cell signaling), anti-Glut1 (Abcam), and anti-Ki67 (Abcam). TUNEL staining was performed by using in situ cell death detection kit-POD (Roche).

| SMILES | heat shock protein 27 (Hsp27) expression |
| --- | --- |
| NS(=O)(=O)OC[C@@H]1C[C@@H](n2ccc3c(N[C@H]4CCc5ccccc54)ncnc32)C[C@@H]1O [MLN4924, reference compound] | induced expression |

same assay, conditions: Skp2, Fbw7 and β-TrCP substrates, FIGS. 3E and 11A

| SMILES | stabilization/induction of SCF substrates |
| --- | --- |
| NS(=O)(=O)OC[C@@H]1C[C@@H](n2ccc3c(N[C@H]4CCc5ccccc54)ncnc32)C[C@@H]1O [MLN4924, reference compound] | globally induced |
